This is an account of results in patent US11124500B2, “Disubstituted pyrazole compounds” (Eli Lilly and Company, priority 2019, dated 2021).

The structures appear in SMILES notation.

The nature of one series: Pharmacokinetics in dogs. Format: in vivo. The conditions noted are these: beagle, plasma, dog, fed; for bioavailability: PO 2 or 3 mg/kg vs IV 1 mg/kg. How it is done: (§1) Liquid Chromatography with Tandem Mass Spectrometry (LC-MS/MS) Method for Pharmacokinetic Assays: Samples are extracted using a protein precipitation by adding 180 μL of MeOH:ACN (1:1, v/v) containing an internal standard to 50 μL of plasma. Samples are then diluted with MeOH:Water (1:1, v/v) to get concentrations within standard curve range. Diluted samples are analyzed by LC-MS/MS using a Sciex API 4000 triple quadrupole mass spectrometer (Applied Biosystems/MDS; Foster City, Calif.) equipped with a TurboIonSpray interface, and operated in positive ion mode. The analytes are chromatographically separated using a ECHELON C18 4 um 20×2.1 mm column. LC conditions are Water/1 M ammonium bicarbonate, (2000:10, v/v) (Mobile Phase A), and MeOH/1 M ammonium bicarbonate, (2000:10, v/v) (Mobile Phase B).
The compound is administered by a single oral (PO; 2 or 3 mg/kg; volume of 2 mL/kg) or intravenous (IV; 1 mg/kg; volume of 1 mL/kg) dose in vehicle. Blood is collected from each animal at multiple time points between 0 and up to 72 hours post-dosage. The plasma concentrations of Example 1 and Example 2 are determined by a LC-MS/MS method as described above.

A further series has as its target human KHK-A (Homo sapiens (Human), UniProt P50053). The series is described as follows: KHK enzyme activity assay, human KHK-A (F1P production, RapidFire MS). Format: biochemical. The conditions noted are these: fructose 1.25 mM, ATP 150 μM; average ± SEM; read-out: hKHK-A IC50. On the procedure:
(§2) KHK Enzyme Activity Assay for Human KHK-C and Human KHK-A
(§3) The intrinsic potency for inhibition of KHK C or A activity may be measured using an enzymatic assay which measures the production of FIP. Compounds are prepared in DMSO and tested in a 10-point concentration curve, to create 3-fold serial dilutions of the compounds in a 96-well plate ranging from 20 μM to 1.02 nM. Enzyme is prepared in assay buffer [50 mM 4-(2-hydroxyethyl)piperazine-1-ethanesulfonic acid (HEPES), 10 mM potassium chloride, 100 mM magnesium chloride, 2 mM tris(2-carboxyethyl)phosphine (TCEP), 0.01% n-octyl glucoside] and incubated with compounds at RT for 15 min. The reaction is carried out in 100 μL volumes containing substrate concentrations of fructose (250 μM for KHK-C assay and 1.25 mM for KHK-A assay) and ATP (150 μM for both isoforms); which are further incubated at RT for 20 min. The reaction is then halted by the addition of stop buffer; consisting of 0.2% formic acid and 1 μg/ml ^13C6-fructose-6-phosphate (^13C6-F6P) internal standard. Plates are stored in −20° C. until RapidFire MS analysis.
(§4) RapidFire MS Analysis for Quantitation of F1P
(§5) An Agilent 300 RapidFire automated extraction system (Agilent, Santa Clara, Calif.) with three HPLC quaternary pumps is coupled to an Agilent 6495 triple quadrupole mass spectrometer (Agilent Technologies, Santa Clara, Calif.) equipped with an electrospray ionization (ESI) interface source. The RapidFire Mass Spec system is equipped with a reusable RapidFire C18 (type C) solid-phase extraction (SPE) cartridge (G9205 Å).
(§6) Solvent A, used for sample loading and washing, is 6 mM octylamine (Acros Organics 129495000) brought to pH 5.0 using acetic acid. Solvent B, used for sample elution, is 20% water in ACN containing 0.1% formic acid. Samples are sequentially analyzed by aspirating 10 μL onto the collection loop under vacuum directly from multiwell plates. The 10 μL of sample is loaded onto the C18 cartridge and washed using solvent A at a flow rate of 1.25 mL/min for 5000 ms. The retained analytes are then eluted to the mass spectrometer using solvent B at a flow rate of 1.25 mL/min for 5000 ms. The system is re-equilibrated using solvent at flow rate of 1.25 mL/min for 2000 ms.
(§7) The triple quadrupole mass spectrometer is equipped with an ESI source and analytes are monitored using selected reaction monitoring (SRM) in negative mode [M−H]−. F1P is monitored at m/z 259.02/96.9 and ^13C6-fructose-6-phosphate is monitored at m/z 264.99/97. The area ratio values for F1P is calculated using ^13C6-fructose-6-phospate as internal standard.

Series [1] can be described thus: Pharmacokinetics in Sprague Dawley rats. Format: in vivo. The note with it: plasma, rat, fasted; for bioavailability: PO 2 or 3 mg/kg vs IV 1 mg/kg. How it is done:
as §1
Pharmacokinetics in Sprague Dawley Rats
The compound is administered by a single oral (PO; 2 or 3 mg/kg; volume of 10 mL/kg) or intravenous (IV; 1 mg/kg; volume of 1 mL/kg) dose in vehicle. Blood is collected from each animal at multiple time points between 0 and up to 48 hours post-dosage. The plasma concentrations of Example 1 and Example 2 are determined by a LC-MS/MS method as described above.

Another series addresses human KHK-C (Homo sapiens (Human), UniProt P50053). The series is described as follows: KHK enzyme activity assay, human KHK-C (F1P production, RapidFire MS). Format: biochemical. The note with it: fructose 250 μM, ATP 150 μM; average ± SEM; read-out: hKHK-C IC50. How it is done:
as §2, §3, §4, §5, §6, §7

The conditions of series [2]: administered for 6 weeks, subjects with NAFLD; cited from earlier work.

Chain of human KHK-A (P50053 other isoform, or with tags, fused parts or gaps): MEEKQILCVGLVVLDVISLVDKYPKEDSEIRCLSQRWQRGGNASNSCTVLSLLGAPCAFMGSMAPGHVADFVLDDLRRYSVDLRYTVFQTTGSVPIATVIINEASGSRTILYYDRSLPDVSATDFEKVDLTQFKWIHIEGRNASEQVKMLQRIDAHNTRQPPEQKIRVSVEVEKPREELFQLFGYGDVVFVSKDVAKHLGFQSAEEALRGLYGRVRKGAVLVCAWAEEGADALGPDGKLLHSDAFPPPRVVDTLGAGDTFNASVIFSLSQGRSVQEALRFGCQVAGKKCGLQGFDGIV
Chain of human KHK-C (P50053 whole entry): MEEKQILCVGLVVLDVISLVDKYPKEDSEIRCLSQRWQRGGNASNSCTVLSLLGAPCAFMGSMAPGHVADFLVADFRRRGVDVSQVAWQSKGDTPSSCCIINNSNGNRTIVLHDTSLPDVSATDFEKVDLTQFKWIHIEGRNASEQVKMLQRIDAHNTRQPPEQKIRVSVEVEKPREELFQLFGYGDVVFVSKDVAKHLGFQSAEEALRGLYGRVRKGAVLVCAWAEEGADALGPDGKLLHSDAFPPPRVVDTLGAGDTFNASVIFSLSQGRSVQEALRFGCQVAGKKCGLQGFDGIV

The term bioavailability denotes dose-corrected exposure relative to a reference, in per cent. A higher bioavailability goes with much systemic uptake. A word on the clearance: it is a measure of how efficiently the substance is removed, as volume per time. Read a low clearance as a low capacity for elimination. As usually defined, the half-life is how long it takes for the measured level to halve. Broadly, the IC50 is the concentration needed to halve the response being measured. Consider `C[C@H]1CCN1c1nc(-c2cnn(CC(=O)N3CCNCC3)c2)cc(C(F)(F)F)n1` [Example 1, 2-[4-[2-[(2S)-2-Methylazetidin-1-yl]-6-(trifluoromethyl)pyrimidin-4-yl]pyrazol-1-yl]-1-piperazin-1-yl-ethanone], for which the bioavailability in “Pharmacokinetics in dogs” turned out to be 87%; in series [1], 83%. Moreover, the figures for the clearance (in the series “Pharmacokinetics in dogs” (single IV dose 1 mg/kg); in series [1] (single IV dose 1 mg/kg)) were 3.41 mL/min/kg and 5.86 mL/min/kg, respectively. Also, the half-life in the series “Pharmacokinetics in dogs” (single IV dose 1 mg/kg) is 28 h; in “Pharmacokinetics in dogs” (single PO dose 2 or 3 mg/kg), 36.6 h; in series [1] (single IV dose 1 mg/kg), 12.8 h; in series [1] (single PO dose 2 or 3 mg/kg) it was 12.9 h. The IC50 amounted to 0.0242 ± 0.0029 µM at human KHK-A and 0.0207 ± 0.00388 µM on human KHK-C.

Take `C[C@H]1CCN1c1nc(N2C[C@@H]3[C@@H](CC(=O)O)[C@@H]3C2)cc(C(F)(F)F)n1` [PF-06835919]: in series [2], the “whole liver fat (magnetic resonance imaging-proton density fat fraction)” value is recorded as “reduces whole liver fat”.

For `C[C@H]1CCN1c1nc(-c2cnn(CC(=O)N3CCN(C)CC3)c2)cc(C(F)(F)F)c1C#N` [Example 20, 2-[(2S)-2-Methylazetidin-1-yl]-6-[1-[2-(4-methylpiperazin-1-yl)-2-oxo-ethyl]pyrazol-4-yl]-4-(trifluoromethyl)pyridine-3-carbonitrile], the results for the IC50 at human KHK-A and at human KHK-C were 0.0818 ± 0.0926 µM and 0.15 ± 0.243 µM, respectively.

On to `C[C@H]1CCN1c1nc(-c2cnn(CC(=O)NCCO)c2)cc(C(F)(F)F)c1C#N` [Example 5, 2-[4-[5-Cyano-6-[(2S)-2-methylazetidin-1-yl]-4-(trifluoromethyl)-2-pyridyl]pyrazol-1-yl]-N-(2-hydroxyethyl)acetamide], for which the IC50 was 0.0377 ± 0.0199 µM at human KHK-A and 0.057 ± 0.0326 µM on human KHK-C.

Take `C[C@H]1CCN1c1nc(-c2cnn(C3CCN(CCO)CC3)c2)cc(C(F)(F)F)c1C#N` [Example 9, 6-[1-[1-(2-Hydroxyethyl)-4-piperidyl]pyrazol-4-yl]-2-[(2S)-2-methylazetidin-1-yl]-4-(trifluoromethyl)pyridine-3-carbonitrile]: the concentration for half-maximal inhibition (IC50) amounted to 0.00358 µM on human KHK-A and 0.00626 µM at human KHK-C.

In the case of `C[C@H]1CCN1c1nc(-c2cnn(CCO)c2)cc(C(F)(F)F)c1C#N` [Example 11, 6-[1-(2-Hydroxyethyl)pyrazol-4-yl]-2-[(2S)-2-methylazetidin-1-yl]-4-(trifluoromethyl)pyridine-3-carbonitrile], the IC50 is 0.00523 µM on human KHK-A and 0.00803 µM at human KHK-C.

Consider `C[C@H]1[C@H](O)CN1c1nc(-c2cnn(C3CN(C)C3)c2)cc(C(F)(F)F)n1` [Example 35, (2S,3R)-2-Methyl-1-[4-[1-(1-methylazetidin-3-yl)pyrazol-4-yl]-6-(trifluoromethyl)pyrimidin-2-yl]azetidin-3-ol], for which the IC50 came out at 0.00159 µM at human KHK-A and 0.00263 µM at human KHK-C.

As for `C[C@H]1CCN1c1nc(-c2cnn(CCN(C)C)c2)cc(C(F)(F)F)c1C#N` [Example 10, 6-[1-[2-(Dimethylamino)ethyl]pyrazol-4-yl]-2-[(2S)-2-methylazetidin-1-yl]-4-(trifluoromethyl)pyridine-3-carbonitrile], the 50% inhibitory concentration (IC50) amounted to 0.246 ± 0.248 µM at human KHK-A and 0.418 ± 0.503 µM on human KHK-C.

Turning to `C[C@H]1CCN1c1nc(-c2cnn(CC(=O)N(CCO)CCO)c2)cc(C(F)(F)F)c1C#N` [Example 21, 2-[4-[5-Cyano-6-[(2S)-2-methylazetidin-1-yl]-4-(trifluoromethyl)-2-pyridyl]pyrazol-1-yl]-N,N-bis(2-hydroxyethyl)acetamide], the IC50 on human KHK-A was determined as 0.0392 ± 0.0136 µM; at human KHK-C, 0.0552 ± 0.0281 µM.

Turning to `C[C@H]1CCN1c1nc(-c2cnn(C3CCNCC3O)c2)cc(C(F)(F)F)c1C#N` (stereo partly drawn) [Example 27, 6-[1-(3-Hydroxy-4-piperidyl)pyrazol-4-yl]-2-[(2S)-2-methylazetidin-1-yl]-4-(trifluoromethyl)pyridine-3-carbonitrile], the IC50 worked out at 0.00463 µM on human KHK-A and 0.00921 µM on human KHK-C.

As for `OC[C@H]1CCN1c1nc(-c2cnn([C@@H]3CCNC3)c2)cc(C(F)(F)F)n1` [Example 16, [(2R)-1-[4-[1-[(3R)-Pyrrolidin-3-yl]pyrazol-4-yl]-6-(trifluoromethyl)pyrimidin-2-yl]azetidin-2-yl]methanol], the values for the half-inhibitory concentration (IC50) on human KHK-A and at human KHK-C were 0.03 ± 0.00509 µM and 0.028 ± 0.0173 µM, respectively.

Turning to `C[C@H]1CCN1c1nc(-c2cnn(CC(=O)N3CCNC(C)(C)C3)c2)cc(C(F)(F)F)n1` [Example 31, 1-(3,3-Dimethylpiperazin-1-yl)-2-[4-[2-[(2S)-2-methylazetidin-1-yl]-6-(trifluoromethyl)pyrimidin-4-yl]pyrazol-1-yl]ethanone], the IC50 at human KHK-A stood at 0.0705 µM; on human KHK-C, 0.0347 µM.

With `OC[C@H]1CCN1c1nc(-c2cnn(C3CCNCC3)c2)cc(C(F)(F)F)n1` [Example 2, [(2R)-1-[4-[1-(4-Piperidyl)pyrazol-4-yl]-6-(trifluoromethyl)pyrimidin-2-yl]azetidin-2-yl]methanol], the bioavailability in the series “Pharmacokinetics in dogs” was approximately 100%; in series [1], 95%. Further, the clearance in “Pharmacokinetics in dogs” (single IV dose 1 mg/kg) was found to be 19.6 mL/min/kg; in series [1] (single IV dose 1 mg/kg) it was 56.4 mL/min/kg. The half-life in the series “Pharmacokinetics in dogs” (single IV dose 1 mg/kg) is 10.3 h; in the series “Pharmacokinetics in dogs” (single PO dose 2 or 3 mg/kg), 9.79 h; in series [1] (single IV dose 1 mg/kg), 4.29 h; in series [1] (single PO dose 2 or 3 mg/kg), 5.12 h. Further, the results for the IC50 at human KHK-A and at human KHK-C were 0.0982 ± 0.025 µM and 0.134 ± 0.0431 µM, respectively.

For `C[C@H]1CCN1c1nc(-c2cnn(CC(O)CO)c2)cc(C(F)(F)F)c1C#N` (single isomer, unassigned; isomer 1) [Example 24a], the IC50 at human KHK-A amounted to 0.00999 µM; on human KHK-C, 0.00606 µM.

Regarding `C[C@H]1CCN1c1nc(-c2cnn(CC(=O)N3C[C@@H](O)[C@H](O)C3)c2)cc(C(F)(F)F)c1C#N` [Example 22, 6-[1-[2-[(3R,4R)-3,4-Dihydroxypyrrolidin-1-yl]-2-oxo-ethyl]pyrazol-4-yl]-2-[(2S)-2-methylazetidin-1-yl]-4-(trifluoromethyl)pyridine-3-carbonitrile], the IC50 was 0.0337 ± 0.0178 µM on human KHK-A and 0.0613 ± 0.0575 µM at human KHK-C.
